In patent US4505929A, “Sulfur-substituted diphenyl ethers having antiviral activity” (The Dow Chemical Company, priority 1982, dated 1985):
In brackets after ≈: the same amount, converted by molar mass. Like-named read-outs stand apart in the source and are kept apart here.

How the values were obtained:
rhinovirus type 60 = assay: Inhibition of cytopathic effect in Wl-38 cells, type 60; format: cell-based; details: Enterovirus, WI-38, 25 μg/ml, Wl-38 human embryonic lung cells, read-out: inhibition grade
Procedure: (§1) Solutions of 4-(4-(methylsulfonyl)phenoxy)-1,2-dichlorobenzene were prepared by dissolving 5 milligrams of the compound in 0.1 ml dimethyl sulfoxide and incubating at 56° C. for at least 15 minutes. This solution was added to 0.9 ml of warmed (56° C.) maintenance medium (49% Eagles, 49% medium 199, 2% fetal calf serum and antibiotics), and the resulting 1.0 ml was then added to 9 ml of warmed (56° C.) maintenance medium. From this solution the final concentrations of 100, 50, 25, or 12.5 μg/ml were made up with maintenance medium.
(§2) Triplicate cell culture tubes (Wl-38 human embryonic lung cell culture tubes) were fed with 1 ml of medium containing the compound at specified concentrations and inoculated with 3-300 TCID50 (3-300 times the tissue culture infective dose 50, i.e., the dose required to infect 50% of the cell cultures tested. Simultaneous viral titrations were performed. The tissue cultures were supplemented with fresh medium when necessary (around 3-4 days) until viral titrations were completed.
(§3) The cell culture tubes were examined daily for cytopathic effect. […] Comparisons were made at that time with the percentage of cell sheet destruction in tubes containing virus compound mixtures. Observed differences of 75% or more were graded "+", 74-50% as "±", and less than 50% as "-" inhibition.

rhinovirus type 56 = assay: Inhibition of cytopathic effect in Wl-38 cells, type 56; format: cell-based; details: Enterovirus, WI-38, 25 μg/ml, Wl-38 human embryonic lung cells, read-out: inhibition grade
Procedure: as §1, §2, §3

[1] = system: Hank's (untyped) rhinovirus; assay: Inhibition of cytopathic effect in Wl-38 cells, Hank's (untyped); format: cell-based; details: Enterovirus, WI-38, 25 μg/ml, Wl-38 human embryonic lung cells, read-out: inhibition grade
Procedure: as §1, §2, §3

[2] = system: Coxsackie A21 virus (Cox A21); assay: Tissue culture antiviral test (HeLa cells), Cox A21; format: cell-based; details: 48 and 72 hours post-treatment, read-out: Lowest concentration necessary to cause a 50 percent reduction in cytopathic effect, Cox A21
Procedure: (§4) Monolayered HeLa cells in 16 millimeter (mm) tissue culture dishes were treated with 1 ml of culture medium (Eagles medium supplemented with fetal calf serum) containing subject compound at an appropriate concentration or containing no compound at all. Culture media such as those described herein are more fully described in standard texts, as for example, Kuchler's Biochemical Methods in Cell Culture and Virology, Dowden, Hutchinson and Ross, Inc., Stroudsberg, PA (1977). Following treatment, cells were challenged with 0.05 ml of rhinovirus type 1A (RV-1A), rhinovirus type 2 (RV-2) or Coxsackie A21 virus (Cox A21) in culture medium. Some of the compounds were also tested against rhinovirus type 5 (RV-5), rhinovirus type 8 (RV-8) or rhinovirus type 64 (RV-64). Cell controls received no viruses.
(§5) ^xx Lowest concentration of the compound (μg/ml) necessary to caus
(§6) a 50 percent reduction in cytopathic effect.

rhinovirus type 68 = assay: Inhibition of cytopathic effect in Wl-38 cells, type 68; format: cell-based; details: Enterovirus, WI-38, 25 μg/ml, Wl-38 human embryonic lung cells, read-out: inhibition grade
Procedure: as §1, §2, §3

rhinovirus type 29 = assay: Inhibition of cytopathic effect in Wl-38 cells, type 29; format: cell-based; details: Enterovirus, WI-38, 25 μg/ml, Wl-38 human embryonic lung cells, read-out: inhibition grade
Procedure: as §1, §2, §3

Coxsackie A21 virus = assay: Continuous Oral Feeding test in Coxsackie A21 infected mice; format: in vivo; details: in diet
Procedure: Some of the compounds were also tested in animals utilizing the following procedure, hereinafter referred to as the "Continuous Oral Feeding" test. Coxsackie A21 virus grown on HeLa cells was administered at a concentration that produces 80 to 100% deaths in mice weighing 10 to 11 grams within 10 days, when the mice are injected (IP) with 0.2 ml of virus preparation. Mice were placed on diets containing test compound dispersed in plain commercially available rodent mash chow at a concentration of 0.05% (weight percent) on day 0. On day 1 the mice were challenged with the virus preparation, 0.2 ml/mouse, (IP). Deaths in both control and experimental groups were recorded for the 10 days and the results analyzed by a chi-square (X^2) test. Chi-square values greater than 3.84 indicate the compound is active (95% confidence level).
^xxx Percent (by weight) of test compound in the diet fed to test

[3] = Cytotoxicity to HeLa cells in tissue culture testing; format: cell-based; details: human
Procedure: as §4
^x Cytotoxicity figures represent the concentration of the compound,
micrograms/milliliter (μg/ml) found to be toxic to the cell.
means "approximately "; "<<" "considerably less than " and "G.I." means

rhinovirus type 2 (RV-2) = assay: Tissue culture antiviral test (HeLa cells), RV-2; format: cell-based; details: Enterovirus, 48 and 72 hours post-treatment, read-out: Lowest concentration necessary to cause a 50 percent reduction in cytopathic effect, RV-2
Procedure: as §4, §5, §6

rhinovirus type 8 = assay: Inhibition of cytopathic effect in Wl-38 cells, type 8; format: cell-based; details: Enterovirus, WI-38, 25 μg/ml, Wl-38 human embryonic lung cells, read-out: inhibition grade
Procedure: as §1, §2, §3

rhinovirus type 17 = assay: Inhibition of cytopathic effect in Wl-38 cells, type 17; format: cell-based; details: Enterovirus, WI-38, 25 μg/ml, Wl-38 human embryonic lung cells, read-out: inhibition grade
Procedure: as §1, §2, §3

rhinovirus type 13 = assay: Inhibition of cytopathic effect in Wl-38 cells, type 13; format: cell-based; details: Enterovirus, WI-38, 25 μg/ml, Wl-38 human embryonic lung cells, read-out: inhibition grade
Procedure: as §1, §2, §3

rhinovirus type 59 = assay: Inhibition of cytopathic effect in Wl-38 cells, type 59; format: cell-based; details: Enterovirus, WI-38, 25 μg/ml, Wl-38 human embryonic lung cells, read-out: inhibition grade
Procedure: as §1, §2, §3

rhinovirus type 74 = assay: Inhibition of cytopathic effect in Wl-38 cells, type 74; format: cell-based; details: Enterovirus, WI-38, 25 μg/ml, Wl-38 human embryonic lung cells, read-out: inhibition grade
Procedure: as §1, §2, §3

rhinovirus type 4 = assay: Inhibition of cytopathic effect in Wl-38 cells, type 4; format: cell-based; details: Enterovirus, WI-38, 25 μg/ml, Wl-38 human embryonic lung cells, read-out: inhibition grade
Procedure: as §1, §2, §3

[4] = system: rhinovirus type 1A (RV-1A); assay: Tissue culture antiviral test (HeLa cells), RV-1A; format: cell-based; details: Enterovirus, 48 and 72 hours post-treatment, read-out: Lowest concentration necessary to cause a 50 percent reduction in cytopathic effect, RV-1A
Procedure: as §4, §5, §6

[5] = system: rhinovirus type 64 (RV-64); assay: Tissue culture antiviral test (HeLa cells), RV-64; format: cell-based; details: Enterovirus, 48 and 72 hours post-treatment, read-out: Lowest concentration necessary to cause a 50 percent reduction in cytopathic effect, RV-64
Procedure: as §4, §5, §6

rhinovirus type 81 = assay: Inhibition of cytopathic effect in Wl-38 cells, type 81; format: cell-based; details: Enterovirus, WI-38, 25 μg/ml, Wl-38 human embryonic lung cells, read-out: inhibition grade
Procedure: as §1, §2, §3

rhinovirus type 21 = assay: Inhibition of cytopathic effect in Wl-38 cells, type 21; format: cell-based; details: Enterovirus, WI-38, 25 μg/ml, Wl-38 human embryonic lung cells, read-out: inhibition grade
Procedure: as §1, §2, §3

Cox A21 = assay: Single Oral Dose test in Cox A21 infected mice; format: in vivo, Swiss male mice
Procedure: In addition, some of the compounds were tested in animals utilizing the following procedure, hereinafter referred to as the "Single Oral Dose" test. Swiss male mice, 10-12 grams in weight were challenged intraperitoneally (IP) with 0.2 ml of a normally lethal dose, i.e. a virus dose sufficient to cause .congruent.80-100% mortality in infected animals within 10 days of challenge of Cox A21, in phosphate buffered saline containing 1% heat inactivated fetal calf serum. Three hours later mice were treated orally (P.O.) with 0.2 ml of compound suspended in 0.5% hydroxypropyl methylcellulose (Methocel) or with 0.2 ml of 0.5% Methocel containing no compound. […] Mice were observed daily for 7-10 days post-challenge and deaths recorded. A modified Mantel-Haenzel combined chi-square procedure was used to determine significant difference between virus control and treated groups. Chi-square values greater than 3.84 are considered significant (95% confidence level) in this test.

rhinovirus type 64 = assay: Inhibition of cytopathic effect in Wl-38 cells, type 64; format: cell-based; details: Enterovirus, WI-38, 25 μg/ml, Wl-38 human embryonic lung cells, read-out: inhibition grade
Procedure: as §1, §2, §3

rhinovirus type 8 (RV-8) = assay: Tissue culture antiviral test (HeLa cells), RV-8; format: cell-based; details: Enterovirus, 48 and 72 hours post-treatment, read-out: Lowest concentration necessary to cause a 50 percent reduction in cytopathic effect, RV-8
Procedure: as §4, §5, §6

[6] = Acute oral toxicity in beagle dogs; details: dog, in vivo
rhinovirus type 10 = assay: Inhibition of cytopathic effect in Wl-38 cells, type 10; format: cell-based; details: Enterovirus, WI-38, 25 μg/ml, Wl-38 human embryonic lung cells, read-out: inhibition grade
Procedure: as §1, §2, §3

Acute toxicity in rats = details: rat, in vivo
rhinovirus type 6 = assay: Inhibition of cytopathic effect in Wl-38 cells, type 6; format: cell-based; details: Enterovirus, WI-38, 25 μg/ml, Wl-38 human embryonic lung cells, read-out: inhibition grade
Procedure: as §1, §2, §3

rhinovirus type 39 = assay: Inhibition of cytopathic effect in Wl-38 cells, type 39; format: cell-based; details: Enterovirus, WI-38, 25 μg/ml, Wl-38 human embryonic lung cells, read-out: inhibition grade
Procedure: as §1, §2, §3

rhinovirus type 19 = assay: Inhibition of cytopathic effect in Wl-38 cells, type 19; format: cell-based; details: Enterovirus, WI-38, 25 μg/ml, Wl-38 human embryonic lung cells, read-out: inhibition grade
Procedure: as §1, §2, §3

rhinovirus type 58 = assay: Inhibition of cytopathic effect in Wl-38 cells, type 58; format: cell-based; details: Enterovirus, WI-38, 25 μg/ml, Wl-38 human embryonic lung cells, read-out: inhibition grade
Procedure: as §1, §2, §3

rhinovirus type 75 = assay: Inhibition of cytopathic effect in Wl-38 cells, type 75; format: cell-based; details: Enterovirus, WI-38, 25 μg/ml, Wl-38 human embryonic lung cells, read-out: inhibition grade
Procedure: as §1, §2, §3

Picornaviruses = assay: Antiviral effectiveness against picornaviruses, overall; format: cell-based
Procedure: as §4
Solutions of 4-(4-(methylsulfonyl)phenoxy)-1,2-dichlorobenzene were prepared by dissolving 5 milligrams of the compound in 0.1 ml dimethyl sulfoxide and incubating at 56° C. for at least 15 minutes. This solution was added to 0.9 ml of warmed (56° C.) maintenance medium (49% Eagles, 49% medium 199, 2% fetal calf serum and antibiotics), and the resulting 1.0 ml was then added to 9 ml of warmed (56° C.) maintenance medium. From this solution the final concentrations of 100, 50, 25, or 12.5 μg/ml were made up with maintenance medium. […]

rhinovirus type 5 (RV-5) = assay: Tissue culture antiviral test (HeLa cells), RV-5; format: cell-based; details: Enterovirus, 48 and 72 hours post-treatment, read-out: Lowest concentration necessary to cause a 50 percent reduction in cytopathic effect, RV-5
Procedure: as §4, §5, §6

## CS(=O)(=O)c1ccc(Oc2ccc(Cl)c(Cl)c2)cc1 [Example 1, 4-(4-(Methylsulfonyl)phenoxy)-1,2-dichlorobenzene]
Rhinovirus type 60
  inhibition at 25 µg/mL: ≥ 75%
Rhinovirus type 56
  inhibition at 25 µg/mL: ≥ 75%
[1]
  inhibition at 25 µg/mL: ≥ 75%
[2]
  EC50: 2.5 µg/mL (≈ 7.88 µM)
Rhinovirus type 68
  inhibition at 25 µg/mL: 50 to 74%
Rhinovirus type 29
  inhibition at 25 µg/mL: ≥ 75%
Coxsackie A21 virus
  antiviral activity in Continuous Oral Feeding test: exhibited antiviral activity
[3]; G.I. = growth inhibition: at the concentration shown the compound inhibited growth of the tissue culture, read-out: Cytotoxicity (G.I.)
  MCC: 50 to 100 µg/mL
Rhinovirus type 2 (RV-2)
  EC50: 0.25 µg/mL (≈ 0.788 µM)
Rhinovirus type 8
  inhibition at 25 µg/mL: < 50%
Rhinovirus type 17
  inhibition at 25 µg/mL: ≥ 75%
Rhinovirus type 13
  inhibition at 25 µg/mL: ≥ 75%
Rhinovirus type 59
  inhibition at 25 µg/mL: ≥ 75%
Rhinovirus type 74
  inhibition at 25 µg/mL: ≥ 75%
Rhinovirus type 4
  inhibition at 25 µg/mL: ≥ 75%
[4]
  EC50: 0.25 µg/mL (≈ 0.788 µM)
[5]
  EC50: 0.25 µg/mL (≈ 0.788 µM)
Rhinovirus type 81
  inhibition at 25 µg/mL: ≥ 75%
Rhinovirus type 21
  inhibition at 25 µg/mL: ≥ 75%
Cox A21
  antiviral activity in Single Oral Dose test: exhibited antiviral activity
Rhinovirus type 64
  inhibition at 25 µg/mL: ≥ 75%
Rhinovirus type 8 (RV-8)
  EC50: ~50 µg/mL (≈ 158 µM)
[6]
  LD50: > 2000 mg/kg
Rhinovirus type 10
  inhibition at 25 µg/mL: ≥ 75%
Acute toxicity in rats; ip, intraperitoneal, read-out: acute toxicity, intraperitoneal administration
  LD50: > 1000 mg/kg
Acute toxicity in rats; oral, read-out: acute oral toxicity
  LD50: > 2000 mg/kg
Rhinovirus type 6
  inhibition at 25 µg/mL: ≥ 75%
Rhinovirus type 39
  inhibition at 25 µg/mL: ≥ 75%
Rhinovirus type 19
  inhibition at 25 µg/mL: ≥ 75%
Rhinovirus type 58
  inhibition at 25 µg/mL: ≥ 75%
Rhinovirus type 75
  inhibition at 25 µg/mL: < 50%
Picornaviruses
  effectiveness against Picornaviruses: particularly effective against Picornaviruses

## CS(=O)(=O)c1ccc(Oc2ccc(C#N)cc2)cc1 [Example 8, 4-(4-(Methylsulfonyl)phenoxy)benzonitrile]
[2]
  EC50: < 6.25 µg/mL
[3]; concentration found to be toxic to the cell, observed at 48 and 72 hours, read-out: Cytotoxicity
  MCC: 50 µg/mL
Rhinovirus type 2 (RV-2)
  EC50: 12.5 µg/mL (≈ 45.7 µM)
Rhinovirus type 5 (RV-5)
  EC50: 12.5 µg/mL (≈ 45.7 µM)
[4]
  EC50: 12.5 µg/mL (≈ 45.7 µM)
[5]
  EC50: 12.5 µg/mL (≈ 45.7 µM)
Rhinovirus type 8 (RV-8)
  EC50: 25 µg/mL (≈ 91.5 µM)
